From patent US5786361A, “Pyridazino-, pyrimido-, pyrazino- and triazinoindoles, -pyrrolocycloalkenes or pyrrolooxocycloalkenes, or pyridopyrrolylpyrido compounds, compositions containing them, and use thereof to treat atherosclerosis” (Bayer Aktiengesellschaft, priority 1997, dated 1998)

Test system: HepG2 cells
Experiment: Inhibition of the release of ApoB-100-associated lipoproteins from liver cells (HepG2), immunoassay
Type: cell-based
Settings: Homo sapiens; HepG2 culture supernatant; light adsorption at 450 nm vs solvent control; release of ApoB-100-associated particles
Protocol: 1. Inhibition of the release of ApoB-100-associated lipoproteins
The test for detecting the inhibition of the release of ApoB-100-associatedlipoproteins from liver cells was carried out in vitro using cultured liver cells, preferably using cells of the human line HepG2. These cells are cultured under standard conditions in medium for the culture of eucaryotic cells, preferably in RPMI 1640 with 10% foetal calf serum. HepG2 cells synthesize and secrete into the culture supernatant ApoB-100-associated lipoprotein particles which in principle are constructed similarly to the VLDL and LDL particles which are to be found in the plasma.
These particles can be detected using an immunoassay for human LDL. This immunoassay is carried out using antibodies which have been induced in rabbits against human LDL under standard conditions. The anti-LDL antibodies (rabbit anti-LDL-Ab) were purified by affinity chromatography on an immunosorbent using human LDL. These purified rabbit anti-LDL-Ab are adsorbed on the surface of plastic. Expediently, this adsorption takes place on the plastic surface of microtitre plates having 96 depressions, preferably on MaxiSorp plates. If ApoB-100-associated particles are present in the supernatant of Hep-G2 cells, these can bind to the insolubilized rabbit anti-LDL-Abs, and an imunune complex results which is bound to the plastic surface. Unbound proteins are removed by washing. The immune complex on the plastic surface is detected using monoclonal antibodies which have been induced against human LDL under standard conditions and purified. These antibodies were conjugated to the enzyme peroxidase. Peroxidase converts the colourless substrate TMB into a coloured product in the presence of H2 O2. After acidification of the reaction mixture with H2 SO4, the specific light adsorption at 450 nm is determined, which is a measure of the amount of ApoB-100-associated particles which have been secreted into the culture supernatant by the HepG2 cells.
The IC50 value indicates at which substance concentration the light adsorption is inhibited by 50% in comparison with the control (solvent control without substance).

SMILES	IC50
Cn1c(=O)c2c(c3ccccc3n2Cc2ccc([C@@H](C(=O)N[C@@H](CO)c3ccccc3)C3CCCC3)cc2)n(C)c1=O (mixture of isomers) [Example 2, 2-(R)- and 2-(S)-2-Cyclopentyl-2-(4-{1,3-dimethyl-1,5-dihydro-2,4-oxo-pyrimido-[5,4-b]indol-5-yl-methyl}phenyl)-aceticacidN-(2-hydroxy-1-(R)-1-phenyl-ethyl)amide]	1.1 nM
Cc1nc(C)c2c3ccccc3n(Cc3ccc([C@@H](C(=O)N[C@@H](CO)c4ccccc4)C4CCCC4)cc3)c2n1 [Example 6]	0.8 nM
Cc1nc(C)c2c3ccccc3n(Cc3ccc(C(C(=O)NCc4ccncc4)C4CCCC4)cc3)c2n1 (centres unmarked) [Example 10]	1 nM
Cn1c(=O)c2c3ccccc3n(Cc3ccc([C@H](C(=O)N[C@@H](CO)c4ccccc4)C4CCCC4)cc3)c2c(=O)n1C [Example 16]	8.9 nM
CSc1nnc2c3ccccc3n(Cc3ccc(C(C(=O)N[C@@H](CO)c4ccccc4)C4CCCC4)cc3)c2n1 (some centres unmarked) [Example 26]	1.8 nM
